Reference: patent US7122214B2, “Drynaria extractions for treating osteoporosis and their extraction process” (priority 2000, dated 2006)

Legend:
[1] = system: Primary Osteoporosis; assay: Clinical test of RDE on primary osteoporosis: bone density by double-energy X-ray bone density meter; format: in vivo, human; settings: for Bone density of collum femoris / Bone density of trigonal area of femur / Bone density of trochanteric of femur / Bone density of lumber (L2–L4): RDE 180 mg po tid, α-D3 0.5 μg po bid; for Bone density of lumber (L2–L4): n=17 per group
Protocol: (§1) The drugs with the following dosages and contents are used unless additional explanations.
(§2) Extracts in this present invention: capsules of preparation example 1, each capsule contains 0.18 g of effective component. Positive control medicine: α-D3, (synthesized by TEVA PHARMACEUTICALS, Israel, prepared by Sino-US Kunming BARKER NORTON PHARMACEUTICAL CO., LTD), each capsule contains 0.5 μg of effective component)
(§3) Diagnostic criteria: Comprehensive Diagnostic Grades for Primary Osteoporosis, according to the diagnostic criteria established by Specialized Committee of Osteoporosis of Chinese Association of Geriatrics. (cf. Gu-zhi-shu-song-zheng [M], p169–171, LIU Zhonghou eds. Chemical Industrial Press, Guangzhou, 1992)
(§4) According to the diagnostic criteria mentioned above, 70 cases of osteoporosis are randomly divided into treatment group with RDE and control group with α-D3. RDE is administrated 180 mg, per os, tid, for 6 months-2 period of treatment. And α-D3 is administrated 0.5 μg, per os, bid, for 6 months too.
(§5) Bone density of lumbar (L2–L4) and top-femur (collum femoris, trigonal area of femur, trochanteric of femur) is checked respectively by Double-Energy X-ray Bone Density Meter (LUNAR DPX-L DEXA bone densitometer,US). The unit is g/cm^2. And an Ultrasonic Bone Densitometer (model 2000-SYS-220, METRA Co., Israel) is employed to check the bone density of mid-portion of tibia.

[2] = system: Ovariectomized (OVX) rats; assay: Bone density in Ovariectomized (OVX) osteoporosis model in rats; format: in vivo, Wistar rats
Protocol: (§6) Observe the effect of RDE in this invention on both Tretinoin-induced and Ovariectomized (OVX) osteoporosis model in rats.
(§7) RDE was produced according to Example 1 (Per gram extract is equivalent to 66.67 g crude drugs). RDE was dissolved in distilled water to a concentration of 0.47 mg/ml before administration. And administration was conducted via gastric tube. Tretinoin is manufactured by Chongqing Huabang Pharmaceuticals, Ltd. and was suspended to the concentration of 1.5% with distilled water. Control drug α-D3 was manufactured by TEVA PHARMACEUTICALS, Israel, which is solved in distilled water to the concentration of 0.03 μg/ml before using and administrated orally via gastric tube.
(§8) Tretinoin-induced osteoporosis rats: sixty female W istar rats, 16-week-old, mean weight 234.85±15.32 g. Ovariectomized rats: sixty female Wistar rats, 12-week-old, mean weight 183.46±12.45 g. All the animals are obtained from the Experimental Animal Center of Chinese Military Medical Academy.
(§9) Bone Biomechanics Rheometer was manufactured by Stevens Company, Great Britain (model QTS-25). X ray Bone-density-meter was manufactured by Norland Company, USA (model XR-26). The others are all obtained from market.
(§10) 4. Dose Selections and Groups: • (1) Tretinoin-induced group: Sixty rats are randomly allocated to six groups (10 rats per group). Blank group: control animals received PSS/d (physiological saline solution) alone. […]
(§11) The dose administered to each animal is calculated from the individual body weight recorded at the end of each week. […]
(§12) 7. […] Bone biomechanics measurements: three point bending tests of left thighbone of each animal are performed; load-deformation curve is recorded to measure the biomechanics index. […] Bone structural mechanics parameters: breaking load, elastic load, maximum radius, elastic radius, maximum energy absorption; bone material mechanics parameters: firstly calculated the Femoral Section Inertial Moment, then computed the maximum strain, elastic strain, maximum stress, elastic stress and elastic modulus according to the formulae. […]

[3] = system: Tretinoin-induced osteoporosis in rats; assay: Bone biomechanics (three point bending of left thighbone) in Tretinoin-induced osteoporosis rats; format: in vivo, Wistar rats
Protocol: as §6, §7, §8, §9
4. Dose Selections and Groups: • (1) Tretinoin-induced group: Sixty rats are randomly allocated to six groups (10 rats per group). Blank group: control animals received PSS/d (physiological saline solution) alone. Model group: Tretinoin is given orally 70 mg/kg/d; α-D3 group: both tretinoin and α-D3 are given orally 70 mg/kg/d and 0.002 μg/kg/d respectively; RDE low-dose group: both tretinoin and RDE are given orally 70 mg/kg/d and 54 mg/kg/d respectively; RDE medium-dose group: tretinoin 70 mg/kg/d and RDE 108 mg/kg/d; RDE high-dose group: tretinoin 70 mg/kg/d and RDE 216 mg/kg/d. • (2) Ovariectomized (OVX) rats group: Sixty rats are randomly allocated to six groups (10 rats per group). Blank group is the normal rats. All the other groups are removed amphi-ovaries. Model group received PSS only; α-D3 group: α-D3 is administrated orally 0.002 μg/kg/d; And RDE is administrated orally in the dose of 54, 108, 216 mg/kg/day to OVX rats respectively, corresponding to RDE groups of low-dose, medium-dose and high-dose.
The dose administered to each animal is calculated from the individual body weight recorded at the end of each week.
Tretinoin-induced osteoporosis groups: Blank group received PSS during the course of experiment. The other groups commenced treatment on the same day, designated study Day 1, and once-daily tretinoin orally given for 14 days, after which they stopped administrating tretinoin. Both blank and model groups are given PSS in Day 15, and α-D3 group is given α-D3, RDE groups are given the corresponding dose of RDE orally for 14 days. The final dose is given in the Day 28 before sacrificed. Investigation of Bone Density and Bone-biomechanics are performed in the Day 29.
7. Measurements • 7.1. Bone density measurements are performed on No.2–4 lumbar spines and right thighbone of each animal. • 7.2. Bone biomechanics measurements: three point bending tests of left thighbone of each animal are performed; load-deformation curve is recorded to measure the biomechanics index. Experimental parameters: span 20 mm, loading velocity 10 mm/min. Bone structural mechanics parameters: breaking load, elastic load, maximum radius, elastic radius, maximum energy absorption; bone material mechanics parameters: firstly calculated the Femoral Section Inertial Moment, then computed the maximum strain, elastic strain, maximum stress, elastic stress and elastic modulus according to the formulae. [Results]

[4] = system: Tretinoin-induced osteoporosis in rats; assay: Bone density in Tretinoin-induced osteoporosis model in rats; format: in vivo, Wistar rats
Protocol: as §6, §7, §8, §9, §10, §11, §12

[5] = system: Primary Osteoporosis; assay: Clinical test of RDE on primary osteoporosis: ultrasonic bone density of mid-portion of tibia; format: in vivo, human; settings: for ultrasonic bone density, Age matched (difference value) / ultrasonic bone density, Young adult (difference value): RDE 180 mg po tid (n=16), α-D3 0.5 μg po bid (n=15)
Protocol: as §1, §2, §3, §4, §5

[6] = OVX rats, α-D3 0.002 μg/kg/d oral 12 weeks
[7] = α-D3 0.002 μg/kg/d oral 14 days after tretinoin 70 mg/kg/d 14 days

Q: Which “Bone density of collum femoris” value ([1]; Before-treatment (baseline)) does the source give for `C=C1/C(=C\C=C2/CCC[C@]3(C)[C@@H]([C@H](C)CCCC(C)C)CC[C@@H]23)C[C@@H](O)C[C@@H]1O` [α-D3] here?
A: The value was 0.748 ± 0.095 g/cm^2.

Q: And the “Bone density of trigonal area of femur” value ([1]; Before-treatment (baseline))?
A: The value was 0.582 ± 0.125 g/cm^2.

Q: And the “Bone density of trochanteric of femur” value ([1]; Before-treatment (baseline))?
A: The value was 0.606 ± 0.109 g/cm^2.

Q: What about the “Bone density of lumber (L2–L4)” value ([1]; Before-treatment (baseline)) of the same compound?
A: The value was 0.958 ± 0.180 g/cm^2.

Q: What about the “Change of bone density of collum femoris after vs before treatment” value ([1]; after 3 and 6 months, within group) of the same compound?
A: The value was “no significant difference”.

Q: What about the “Bone density of collum femoris” value ([1]; after 3 months treatment) of the same compound?
A: Its value is 0.744 ± 0.100 g/cm^2.

Q: And the “Bone density of trigonal area of femur” value ([1]; after 3 months treatment)?
A: The value was 0.591 ± 0.124 g/cm^2.

Q: And the “Bone density of trochanteric of femur” value ([1]; after 3 months treatment)?
A: The value was 0.616 ± 0.099 g/cm^2.

Q: And the “Bone density of lumber (L2–L4)” value ([1]; after 3 months treatment)?
A: Its value is 0.954 ± 0.179 g/cm^2.

Q: What about the “Change of bone density of lumber (L2–L4) after vs before treatment” value ([1]; after 3 or 6 months treatment, within group) of the same compound?
A: Its value is “no improvement”.

Q: What about the “Bone density of collum femoris” value ([1]; after 6 months treatment) of the same compound?
A: Its value is 0.744 ± 0.093 g/cm^2.

Q: What about the “Bone density of trigonal area of femur” value ([1]; after 6 months treatment) of the same compound?
A: Its value is 0.581 ± 0.134 g/cm^2.

Q: What about the “Bone density of trochanteric of femur” value ([1]; after 6 months treatment) of the same compound?
A: The value was 0.616 ± 0.094 g/cm^2.

Q: What about the “Bone density of lumber (L2–L4)” value ([1]; after 6 months treatment) of the same compound?
A: Its value is 0.958 ± 0.145 g/cm^2.

Q: What about the “femoral bone density compared with model group” value ([2]; OVX rats (Table 10)) of the same compound?
A: The value was “increased obviously”.

Q: And the “Bone density Lumber spine” value [2, 6]?
A: The value was 0.13 ± 0.009 g/cm^2.

Q: And the Bone density thighbone [2, 6]?
A: Its Bone density thighbone is 0.13 ± 0.009 g/cm^2.

Q: And the “all the bone structural mechanics indicators compared with model group” value ([3]; Tretinoin-induced osteoporosis rats (Table 11))?
A: The value was “increased significantly”.

Q: What about the Elastic load [3, 7] of the same compound?
A: Its Elastic load is 100.40 ± 7.00 N.

Q: What about the “Elastic strain (material)” value [3, 7] of the same compound?
A: The value was 0.03 ± 0.01.

Q: And the “Elastic strain (structural)” value [3, 7]?
A: The value was 1.01 ± 0.14 mm.

Q: And the Elastic stress [3, 7]?
A: Its Elastic stress is 177.6 ± 51.3 N/mm^2.

Q: And the Maximum energy observation [3, 7]?
A: The Maximum energy observation was 635.73 ± 114.46 N-mm.

Q: And the Maximum load [3, 7]?
A: Its Maximum load is 103.20 ± 3.40 N.

Q: And the “Maximum strain (material)” value [3, 7]?
A: Its value is 0.03 ± 0.009.

Q: What about the “Maximum strain (structural)” value [3, 7] of the same compound?
A: Its value is 0.98 ± 0.14 mm.

Q: What about the Maximum stress [3, 7] of the same compound?
A: Its Maximum stress is 167.2 ± 44.5 N/mm^2.

Q: What about the Rigidity coefficient [3, 7] of the same compound?
A: Its Rigidity coefficient is 30561 ± 9194 N/mm^2.

Q: What about the “femoral bone density compared with model group” value ([4]; Tretinoin-induced osteoporosis rats (Table 9)) of the same compound?
A: Its value is “increased obviously”.

Q: And the “Bone density Lumber spine” value [4, 7]?
A: The value was 0.135 ± 0.005 g/cm^2.

Q: What about the Bone density thighbone [4, 7] of the same compound?
A: The Bone density thighbone was 0.137 ± 0.004 g/cm^2.

Q: And the “ultrasonic bone density, Age matched (difference value)” value ([5]; Before-treatment (baseline))?
A: Its value is −1.433 ± 0.788 g/cm^2.

Q: What about the “ultrasonic bone density, Young adult (difference value)” value ([5]; Before-treatment (baseline)) of the same compound?
A: Its value is −1.993 ± 0.872 g/cm^2.

Q: What about the “Speed sound, change self-compared within group” value ([5]; RDE P<0.01, α-D3 P<0.05) of the same compound?
A: The value was “increase significantly”.

Q: And the “ultrasonic bone density, Age matched (difference value)” value ([5]; after 3 months treatment)?
A: Its value is −1.386 ± 0.908 g/cm^2.

Q: And the “ultrasonic bone density, Young adult (difference value)” value ([5]; after 3 months treatment)?
A: The value was −1.953 ± 1.181 g/cm^2.

Q: What about the “ultrasonic bone density, Age matched (difference value)” value ([5]; after 6 months treatment) of the same compound?
A: Its value is −0.987 ± 1.068 g/cm^2.

Q: What about the “ultrasonic bone density, Young adult (difference value)” value ([5]; after 6 months treatment) of the same compound?
A: The value was −0.593 ± 1.209 g/cm^2.
